Values of other authors, collected in patent US20040009962A1, “Combined estrogen blockade of the breast with exemestane and raloxifene” (priority 2000, published 2004).
Where two headings read alike, the source gives them in different places.

Assays:
rats [1] = tested on: rats
[2] = except at relatively high doses
whole body aromatization = settings: 10 postmenopausal women with advanced breast cancer
metastatic breast cancer [3] = tested on: metastatic breast cancer
[4] = tested on: DMBA-induced rat mammary tumor; settings: DMBA-induced rat mammary tumor model
[5] = tested on: plasma estrogen levels (E2, E1, E1S); settings: suppression of E2, E1 and E1S, postmenopausal women
[6] = tested on: 7, 12-dimethyl-benzanthracene (DMBA)-induced mammary tumors; settings: rats
metastatic breast cancer [7] = settings: 25 mg/day
[8] = Ames, V79, E. coli, DNA repair on rat hepatocytes, micronucleus, in vivo and in vitro chromosome aberration
metastatic breast cancer [9] = settings: 25 mg/day orally, 241 women
[10] = tested on: healthy postmenopausal women
endometrium = settings: baseline vs 8 weeks of treatment
[11] = deep vein thrombosis, pulmonary embolism, retinal vein thrombosis
[12] = tested on: DMBA- and NMN-induced mammary carcinogenesis; settings: may be less when compared with tamoxifen
metastatic breast cancer [13] = settings: 200 mg/day
rats [14] = tested on: rats; remark: listed apart in the source
healthy men = settings: 200 mg/day orally
metastatic breast cancer [15] = tested on: metastatic breast cancer; remark: listed apart in the source
[16] = tested on: early stage breast cancer
[17] = tested on: MCF-7 breast cancer cells; settings: estrogen deficient state vs supplemented with estrogen
[18] = all doses, interim analysis, vs placebo

C=C1C[C@@H]2[C@H](CC[C@]3(C)C(=O)CC[C@@H]23)[C@@]2(C)C=CC(=O)C=C12 [exemestane, Exemestane]
embryotoxic dose (rats [1]): ≥ 50 mg/kg | teratogenicity (rats [1]): not teratogenic | tolerability [2]: good tolerability | mean suppression of whole body aromatization (whole body aromatization): 97.9% | whole body aromatization on treatment (mean) (whole body aromatization; pretreatment 2.059%): 0.042% | overall success rate (CR+PR+SD>6 months) (metastatic breast cancer [3]; 25 mg): 47% | overall response rate (CR+PR) (metastatic breast cancer [3]; 25 mg, 128 postmenopausal women, 95% CI 21-37): 28% | overall response rate (CR+PR) (metastatic breast cancer [3]; 88 patients who had measurable disease): 34% | median duration of response (metastatic breast cancer [3]; 95% CI 11-20 months): 14 months | overall response rate (metastatic breast cancer [3]; patients with visceral disease): 33% | stable disease>6 months (metastatic breast cancer [3]; treated population): 19% | appearance of new tumors [4]: reduced | objective response rate [4]: 44% | embryotoxic dose (rabbits): ≥ 270 mg/kg | teratogenicity (rabbits): not teratogenic | dose at which inhibition of plasma estrogen levels became apparent [5]: about 1 mg | efficacy against DMBA-induced mammary tumors [6]: highly effective | concentration from which the chromosome aberration test was positive (human lymphocytes): ≥ 12 µg/mL | overall response rate (metastatic breast cancer [7]; 87 women, 95% CI 6-20): 11% | SD>6 months (metastatic breast cancer [7]; additional patients): 17.2% | genotoxic potential, all tests except chromosome aberration in human lymphocytes [8]: negative | overall success rate (CR+PR+SD>6 months) (metastatic breast cancer [9]): 25% | overall objective response rate (metastatic breast cancer [9]; third- and fourth-line): 7%

O=C(c1ccc(OCCN2CCCCC2)cc1)c1c(-c2ccc(O)cc2)sc2cc(O)ccc12 [raloxifene, Raloxifene]
bone mineral density in the hip, spine, femur and total body [10, 18]: increase | markers of bone turnover [10, 18]: decrease | HDL cholesterol ([10]; in vivo): unchanged | serum total and LDL cholesterol ([10]; in vivo): significantly decreased | side effects ([10]; in vivo): increased hot flashes and leg cramps | tolerability ([10]; in vivo): well tolerated | endometrial thickness ([10]; transvaginal ultrasound, any treatment group): unaffected | change in the endometrium on uterine biopsy (endometrium): no change | risk of venous thromboembolic events [11]: increased risk | bone mineral density (ovariectomized rat): increases | serum cholesterol (ovariectomized rat): decreases | relative risk of endometrial cancer (postmenopausal women; p=0.232): 0.38 | risk reduction of breast cancer (postmenopausal women; raloxifene 60 or 120 mg/day vs controls): 58% | relative risk of endometrial cancer (postmenopausal women; two cases diagnosed within one month of randomization excluded, p=0.045): 0.13 | anti-tumor activity [12]: anti-tumor activity | tolerability (metastatic breast cancer [13]; 14 patients): well tolerated | objective responses (metastatic breast cancer [13]; tamoxifen-refractory group): no objective responses | agonist activity on the rat uterus (rat uterus; administered alone): little agonist activity | uterotropic action of estradiol (rat uterus; immature rat): inhibits | DNA adducts or hepatocarcinogenesis (rats [14]): no reports | response to exogenous estrogen (anti-estrogen effect) (healthy men): blunt

CC/C(=C(\c1ccccc1)c1ccc(OCCN(C)C)cc1)c1ccccc1 [tamoxifen, Tamoxifen]
appearance of new tumors [4]: reduced | objective response rate [4]: 29% | response rates (metastatic breast cancer [15]; premenopausal women, metastatic breast cancer): 20 to 45% | objective response rates (metastatic breast cancer [15]; unselected postmenopausal women with metastatic disease): 30 to 40% | response rates (metastatic breast cancer [15]; women with ER-positive and PR-positive tumors): 60-70% | annual rates of recurrence and mortality ([16]; adjuvant therapy, premenopausal and postmenopausal women): reduce | reduction of the risk of contralateral breast cancer ([16]; five years of adjuvant tamoxifen vs no adjuvant therapy): 47% | tumor mitotic rate [17]: marked reduction

estrogen
change in the endometrium on uterine biopsy (endometrium): significant endometrial stimulation
